Assay results published in ChEMBL document CHEMBL5528003 (Eur J Med Chem, 2024).
Converted amounts (≈) assume the structure as drawn. The source made the active and inactive calls. No cut-off for these calls is given here.

Tests used:
[1] = Metabolic stability in human liver microsomes assessed as parent compound remaining incubated for 60 mins in presence of NADPH by LC-MS/MS analysis; format: ADME, Microsome; conditions: read-out: Stability
[2] = biological target: T1, Estrogen receptor (Homo sapiens, UniProt P03372); assay: Induction of Estrogen receptor degradation in wildtype human MCF7 cells assessed as reduction in estrogen receptor level incubated for 24 hrs by Western blot analysis; format: cell-based
T1 sequence (P03372 whole entry): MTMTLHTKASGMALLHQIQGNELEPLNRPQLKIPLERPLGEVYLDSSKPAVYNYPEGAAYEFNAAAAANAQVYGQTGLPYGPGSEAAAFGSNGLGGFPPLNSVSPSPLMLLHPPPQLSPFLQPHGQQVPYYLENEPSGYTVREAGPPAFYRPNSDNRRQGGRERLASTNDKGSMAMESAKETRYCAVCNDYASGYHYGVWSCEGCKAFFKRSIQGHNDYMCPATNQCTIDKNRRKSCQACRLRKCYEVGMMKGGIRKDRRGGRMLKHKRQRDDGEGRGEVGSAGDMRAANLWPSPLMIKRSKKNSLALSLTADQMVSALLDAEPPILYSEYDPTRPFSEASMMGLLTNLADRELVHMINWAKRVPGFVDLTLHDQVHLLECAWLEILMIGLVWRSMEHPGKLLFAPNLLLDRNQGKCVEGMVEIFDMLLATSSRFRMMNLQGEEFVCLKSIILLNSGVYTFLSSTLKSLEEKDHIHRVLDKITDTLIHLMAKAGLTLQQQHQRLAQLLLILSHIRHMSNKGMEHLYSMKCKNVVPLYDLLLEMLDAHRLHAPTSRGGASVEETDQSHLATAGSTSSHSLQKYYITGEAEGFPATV

[3] = system: MCF7; assay: Antiproliferative activity against wildtype human MCF7 cells assessed as inhibition of cell proliferation incubated for 6 days in presence of beta-estradiol by CellTiter-Glo assay; format: functional, cell-based; conditions: MCF7, 144 h
[4] = Metabolic stability in rat liver microsomes assessed as parent compound remaining incubated for 60 mins in presence of NADPH by LC-MS/MS analysis; format: ADME, Microsome; conditions: read-out: Stability
[5] = Drug concentration in BALB/cNj Foxn1nu/Gpt mouse tumor xenografted with human MCF-7/TAMR-1 cells at 0.8 mg, IM administered for 28 days; format: ADME, tissue-based, Neoplasm; conditions: time 28 day, read-out: Ct
[6] = Drug concentration in BALB/cNj Foxn1nu/Gpt mouse plasma xenografted with human MCF-7/TAMR-1 cells at 7.2 mg, IM administered for 28 days; format: ADME, cell-free; conditions: time 28 day
[7] = system: MCF7; assay: Induction of apoptosis in human MCF7 cells assessed as viable cells at 20 nM incubated for 24 hrs by Annexin V-FITC/PI staining based flow cytometric analysis (reference value: 93.5 %); format: functional; conditions: read-out: Activity
[8] = system: MCF7; assay: Induction of apoptosis in human MCF7 cells assessed as viable cells at 4 nM incubated for 24 hrs by Annexin V-FITC/PI staining based flow cytometric analysis (reference value: 93.5 %); format: functional; conditions: read-out: Activity
[9] = Half-life in Sprague-Dawley rat at 30 mg/kg, IM measured after 49 days by LC-MS/MS analysis; format: ADME, organism-based; conditions: in vivo, time 49 day
[10] = Drug concentration in BALB/cNj Foxn1nu/Gpt mouse tumor xenografted with human MCF-7/TAMR-1 cells at 7.2 mg, IM administered for 28 days; format: ADME, tissue-based, Neoplasm; conditions: time 28 day, read-out: Ct
[11] = Cmax in Sprague-Dawley rat at 30 mg/kg, IM measured after 49 days by LC-MS/MS analysis; format: ADME, organism-based; conditions: in vivo, time 49 day
[12] = Drug concentration in BALB/cNj Foxn1nu/Gpt mouse plasma xenografted with human MCF-7/TAMR-1 cells at 0.8 mg, IM administered for 28 days; format: ADME, cell-free; conditions: time 28 day
[13] = system: MCF7; assay: Induction of apoptosis in human MCF7 cells assessed as viable cells at 100 nM incubated for 24 hrs by Annexin V-FITC/PI staining based flow cytometric analysis (reference value: 93.5 %); format: functional; conditions: read-out: Activity
[14] = AUClast in Sprague-Dawley rat at 30 mg/kg, IM measured after 49 days by LC-MS/MS analysis; format: ADME, organism-based; conditions: in vivo, 1176 h, time 49 day
[15] = Solubility of compound in long acting formulation containing ethanol, benzyl alcohol, benzyl benzoate and castor oil at 57.27 mg incubated for 1 day by LC-MS/MS analysis; format: physicochemical; conditions: 24 h
[16] = Solubility of compound in long acting formulation containing ethanol, benzyl alcohol, benzyl benzoate and castor oil assessed as clear yellow oil solution at 33.69 mg incubated for 1 day by LC-MS/MS analysis; format: physicochemical; conditions: 24 h
[17] = Apparent volume of distribution during terminal phase in Sprague-Dawley rat at 30 mg/kg, IM measured after 49 days by LC-MS/MS analysis; format: ADME, organism-based; conditions: in vivo, 1176 h, time 49 day
[18] = Solubility of compound in long acting formulation containing ethanol, benzyl alcohol, benzyl benzoate and castor oil incubated for 1 days by LC-MS/MS analysis; format: physicochemical; conditions: 24 h; time 1 day
[19] = MRT in Sprague-Dawley rat at 30 mg/kg, IM measured after 49 days by LC-MS/MS analysis; format: ADME, organism-based; conditions: in vivo, time 49 day
[20] = Drug concentration in BALB/cNj Foxn1nu/Gpt mouse tumor xenografted with human MCF-7/TAMR-1 cells at 2.4 mg, IM administered for 28 days; format: ADME, tissue-based, Neoplasm; conditions: time 28 day, read-out: Ct
[21] = Tmax in Sprague-Dawley rat at 30 mg/kg, IM measured after 49 days by LC-MS/MS analysis; format: ADME, organism-based; conditions: in vivo, 1176 h, time 49 day
[22] = Drug concentration in BALB/cNj Foxn1nu/Gpt mouse plasma xenografted with human MCF-7/TAMR-1 cells at 2.4 mg, IM administered for 28 days; format: ADME, cell-free; conditions: time 28 day
[23] = Solubility of compound in long acting formulation containing ethanol, benzyl alcohol, benzyl benzoate and castor oil at 28.07 mg incubated for 1 day by LC-MS/MS analysis; format: physicochemical; conditions: 24 h
[24] = Cmax in Sprague-Dawley rat at 25 mg/kg, IM measured after 49 days by LC-MS/MS analysis; format: ADME, organism-based; conditions: in vivo, time 49 day
[25] = system: Mus musculus; assay: Invivo antagonist activity at Estrogen receptor in BALB/cNj Foxn1nu/Gpt mouse xenografted with human MCF-7/TAMR-1 cells assessed as single-layered cell phenotype of epithelial cells in uterus at 2.0 mg, IM administered for 28 days by H&E staining based analysis; format: functional; conditions: time 28.0 day
[26] = system: MCF7; conditions: Homo sapiens, dose 4.0 nM, time 144.0 hrs
[27] = Apparent volume of distribution during terminal phase in Sprague-Dawley rat at 25 mg/kg, IM measured after 49 days by LC-MS/MS analysis; format: ADME, organism-based; conditions: in vivo, 1176 h, time 49 day
[28] = In vivo antagonist activity at Estrogen receptor in BALB/cNj Foxn1nu/Gpt mouse xenografted with human MCF-7/TAMR-1 cells assessed as fold reduction in uterus wet weight to body weight ratio at 2.0 mg, IM administered for 28 days; format: functional; conditions: time 28 day
[29] = Drug concentration in BALB/cNj Foxn1nu/Gpt mouse plasma xenografted with human MCF-7/TAMR-1 cells at 2.0 mg, IM administered for 28 days; format: ADME, cell-free; conditions: time 28 day
[30] = system: T47D; assay: Antiproliferative activity against human T47D cells transfected with wildtype ESR1 assessed as inhibition of cell proliferation incubated for 5 days by CellTiter-Glo assay; conditions: 120 h
[31] = system: T47D; assay: Antiproliferative activity against human T47D cells transfected with ESR1 D538G mutant assessed as inhibition of cell proliferation incubated for 5 days by CellTiter-Glo assay; conditions: 120 h
[32] = Tmax in Sprague-Dawley rat at 25 mg/kg, IM measured after 49 days by LC-MS/MS analysis; format: ADME, organism-based; conditions: in vivo, time 49 day
[33] = system: T47D; assay: Antiproliferative activity against human T47D cells transfected with ESR1 Y537S mutant assessed as inhibition of cell proliferation incubated for 5 days by CellTiter-Glo assay; conditions: 120 h
[34] = system: T47D; assay: Antiproliferative activity against human T47D cells assessed as inhibition of proliferation incubated for 6 days by CellTiter-Glo assay; conditions: 144 h
[35] = AUClast in Sprague-Dawley rat at 25 mg/kg, IM measured after 49 days by LC-MS/MS analysis; format: ADME, organism-based; conditions: in vivo, 1176 h, time 49 day
[36] = Drug concentration in BALB/cNj Foxn1nu/Gpt mouse tumor xenografted with human MCF-7/TAMR-1 cells at 2.0 mg, IM administered for 28 days; format: ADME, tissue-based, Neoplasm; conditions: time 28 day, read-out: Ct
[37] = biological target: T2, Estrogen receptor (Homo sapiens) (UniProt P03372); conditions: MCF7, time <= 48.0 hrs
T2 sequence (whole entry): T1 sequence (P03372 whole entry)

[38] = MRT in Sprague-Dawley rat at 25 mg/kg, IM measured after 49 days by LC-MS/MS analysis; format: ADME, organism-based; conditions: in vivo, time 49 day
[39] = biological target: T2, Estrogen receptor (Homo sapiens); conditions: T47D, time <= 48.0 hrs
[40] = system: Mus musculus; assay: In vivo antagonist activity at Estrogen receptor in BALB/cNj Foxn1nu/Gpt mouse xenografted with human MCF-7/TAMR-1 cells assessed as reduction in ER level in tumor at 2.0 mg, IM administered for 28 days by Western blot analysis; format: functional; conditions: time 28.0 day
[41] = Half-life in Sprague-Dawley rat at 25 mg/kg, IM measured after 49 days by LC-MS/MS analysis; format: ADME, organism-based; conditions: in vivo, time 49 day
[42] = system: Mus musculus; assay: In vivo antagonist activity at Estrogen receptor in BALB/cNj Foxn1nu/Gpt mouse xenografted with human MCF-7/TAMR-1 cells assessed as reduction in PgR level in tumor at 2.0 mg, IM administered for 28 days by Western blot analysis; format: functional; conditions: time 28.0 day

C[C@@H]1Cc2c([nH]c3ccccc23)[C@@H](c2c(F)cc(NC3CN(CCCS(=O)(=O)CCCC(F)(F)C(F)(F)F)C3)cc2F)N1CC(F)(F)F
remaining at 1 h [1]: 71.2%
DC50 [2]: 10.6 nM
IC50 [3]: 9.7 nM
remaining at 1 h [4]: 99.1%

C[C@@H]1Cc2c([nH]c3ccccc23)[C@@H](c2c(F)cc(NC3CN(CC[S+]([O-])CCCC(F)(F)C(F)(F)F)C3)cc2F)N1CC(F)(F)F (stereo not given in full)
remaining at 1 h [1]: 43%
remaining at 1 h [4]: 71.6%

C[C@@H]1Cc2c([nH]c3ccccc23)[C@@H](c2c(F)cc(NC3CN(CCCS(=O)(=O)CCCC(F)(F)C(F)(F)F)C3)cc2F)N1CC(F)(F)CO
concentration at 672 h [5]: 35.9 ng/mL
concentration at 672 h [6]: 87.7 ng/mL
viability at 0.02 µM [7]: 70.5%
viability at 0.004 µM [8]: 82.7%
half-life [9]: 14.7 days
concentration at 672 h [10]: 252 ng/mL
Cmax [11]: 41.5 ng/mL
concentration at 672 h [12]: 14.9 ng/mL
viability at 0.1 µM [13]: 66.2%
AUClast [14]: 840.09 ng·days/mL
remaining at 1 h [1]: 61%
solubility [15]: Insoluble
solubility [16]: Soluble
Vz/F [17]: 1658.37 L/kg
solubility [18]: 95.1 mg/mL (≈ 131 mM)
MRT [19]: 15.6 days
concentration at 672 h [20]: 154 ng/mL
Tmax [21]: 14 days
remaining at 1 h [4]: 85.7%
concentration at 672 h [22]: 46.6 ng/mL
solubility [23]: Insoluble

C[C@]12CC[C@@H]3c4ccc(O)cc4C[C@@H](CCCCCCCCC[S+]([O-])CCCC(F)(F)C(F)(F)F)[C@H]3[C@@H]1CC[C@@H]2O (stereo not given in full) [FULVESTRANT]
Cmax [24]: 36.7 ng/mL
Activity [25]: Active
inhibition [26]: Active
Vz/F [27]: 2158.67 L/kg
fold change (FC) [28]: ~2
remaining at 1 h [1]: 13%
concentration at 672 h [29]: 30.8 ng/mL
IC50 [30]: 2.21 nM
IC50 [31]: 58.6 nM
Tmax [32]: 0.29 days
IC50 [33]: 5.94 nM
IC50 [34]: 2.3 nM
AUClast [35]: 325.96 ng·days/mL
IC50 [3]: 0.7 nM
concentration at 672 h [36]: 83.4 ng/mL
T1/2 [37]: 0.0542 days
MRT [38]: 18.3 days
T1/2 [39]: 0.608 days
Activity [40]: Active
solubility [18]: 53.17 mg/mL (≈ 87.6 mM)
remaining at 1 h [4]: 9.6%
half-life [41]: 28.6 days
Activity [42]: Active
